Test results taken from US20240091218A1, “METHODS OF TREATING PROSTATE CANCER USING EXICORILANT AND ENZALUTAMIDE” (Corcept Therapeutics Incorporated, priority 2022, published 2024).
“And” between values parts separate entries of the source, which are not always exact repeats. Identical values can stand only once. “Also recorded” adds a separate entry of the source. Like-named read-outs stand apart in the source and are kept apart here.

What was measured:
[1] = male, human, in vivo
[2] = system: GR target genes (CDKN1C); test: GR target gene expression in blood (NanoString)
[3] = system: cortisol, ACTH; test: serum cortisol, ACTH and 24-h urinary free cortisol in patients; assay type: in vivo, human; details: for serum cortisol and ACTH levels: patients receiving exicorilant and enzalutamide
Procedure: Data from Segment 2 subjects whose exicorilant doses were escalated to the doses indicated on the horizontal axis. The 24-h UFC reference range was 10-100 μg/day. The 24-h UFC value for C1D1 (cycle 1, day 1) indicates the initial 24-h UFC levels.
Consistent with prior studies of exicorilant and other SGRMs, morning serum cortisol and ACTH levels were not affected in the safety population or patients who escalated to 320 mg exicorilant. […] The grey band indicates the baseline mean±SD. End of treatment: n=9; cycle 9 day 1: n=3; cycle 6 day 1: n=8; cycle 3 day 1: n=14; cycle 2 day 1: n=13; baseline: n=20.

[4] = system: 22Rv1 prostate cancer xenografts; test: mouse 22Rv1 prostate cancer xenografts; assay type: in vivo; details: 21 days
Text: Left: N=10 mice/group. Castration performed 5 days after inoculation with 22Rv1 tumor cells; exicorilant treatment initiated on day 6 for 21 days. Right: N=10 mice/group. Castration performed 3 days before implantation of 22Rv1 tumor cells; exicorilant treatment initiated on day 7 for 21 days.

[5] = Text: The present study was an investigation of the safety and efficacy of exicorilant when administered in combination with enzalutamide in the treatment of patients suffering from metastatic castration-resistant prostate cancer (mCRPC). […] Patients with histologically confirmed prostate cancer, who had received at least two prior regimens of cytotoxic chemotherapy, were eligible for this study.
Patients in Segment 1 of the study received exicorilant twice daily under fasted conditions. This segment of the study was performed with a standard ‘3+3’ design, including one cohort with an enzalutamide alone lead-in. Enzalutamide was administered once daily.
Patients in Segment 2 of the study received exicorilant once daily under fed conditions. This segment of the study was a double-blind study, in which patients were randomized 3:1 to exicorilant titration (starting at 240 mg, titrated to 280 mg followed by 320 mg every 2 weeks as tolerated starting Cycle 1 Day 16) or to stay on exicorilant 240 mg+placebo. Enzalutamide was administered once daily.
Treatment emergent adverse events (TEAEs) and dose-limiting toxicity events (DLTs) were evaluated for the patients in Segment 2.
Dose-limiting toxicities (DLTs) were recorded from first dose of exicorilant through Cycle 3 and were defined as considered possibly or probably related to study drug by the investigator.

[6] = system: metastatic castration-resistant prostate cancer (mCRPC)
Procedure: Patients received either exicorilant 180 mg twice daily (BID)+enzalutamide 160 mg once daily (QD), or exicorilant 140 mg BID+enzalutamide 160 mg QD with a 28-day enzalutamide lead-in, or exicorilant 140 mg BID+enzalutamide 160 mg QD without an enzalutamide lead-in. Segment 2 enrolled patients who were on a stable dose of enzalutamide with rising PSA (25% increase over nadir and an absolute value >1 ng/mL) and evaluated QD dosing of exicorilant in a double-blind design. All segment 2 patients received exicorilant 240 mg QD+enzalutamide and were randomized 3:1 to titrate to exicorilant 280 mg or 320 mg or to receive placebo.
Segment 2 of the study was a double-blind, placebo-controlled study of patients with rising PSA; exicorilant was administered once-daily, at a dose that was phased-in (titrated in these patients from 240 mg/day, to 280 mg/ day, to 320 mg/day). […] Twenty five patients were enrolled and randomized in a ratio of 3:1 to arm A or to arm B. Exicorilant was administered to the patients once per day, with food; enzalutamide was administered at the dose that was currently tolerated and stable for each patient. Pharmacokinetic assessments of both exicorilant and enzalutamide were made on cycle 1, day 15 (C1D15), and two weeks after each dose escalation; pharmacokinetic assessments of exicorilant were made after each dose reduction (if any). Pharmacodynamic (PD) assessments were made on cycle 1, day 1 (C1D1), cycle 1, day 15 (C1D15), and two weeks after each dose escalation every three cycles from cycle 3, and upon exicorilant discontinuation or disease progression.
PSADT was calculated prior to the first dose of exicorilant (patients on enzalutamide alone), and after C1D1, C2D1, and C3D1 (where “C1D1” stands for cycle 1, day 1 of the combined treatment; “C2D1” stands for cycle 2, day 1 of the combined treatment; and “C3D1” stands for cycle 3, day 1 of the combined treatment).
The median duration of exposure to exicorilant was 9.7 weeks (range: 2-61). In the results shown in FIG. 8A, tumor response was assessed by Prostate Cancer Clinical Trials Working Group 3 (PCWG3) criteria, incorporating modified “Response Evaluation Criteria in Solid Tumors v1.1” (mRECIST v1.1) criteria. Imaging-based PFS was assessed by mRECIST v1.1, progression on bone lesions per PCWG3, or death.

[7] = target: T1, human GR (Homo sapiens, UniProt P04150); test: human GR binding
T1 sequence (P04150 1-777): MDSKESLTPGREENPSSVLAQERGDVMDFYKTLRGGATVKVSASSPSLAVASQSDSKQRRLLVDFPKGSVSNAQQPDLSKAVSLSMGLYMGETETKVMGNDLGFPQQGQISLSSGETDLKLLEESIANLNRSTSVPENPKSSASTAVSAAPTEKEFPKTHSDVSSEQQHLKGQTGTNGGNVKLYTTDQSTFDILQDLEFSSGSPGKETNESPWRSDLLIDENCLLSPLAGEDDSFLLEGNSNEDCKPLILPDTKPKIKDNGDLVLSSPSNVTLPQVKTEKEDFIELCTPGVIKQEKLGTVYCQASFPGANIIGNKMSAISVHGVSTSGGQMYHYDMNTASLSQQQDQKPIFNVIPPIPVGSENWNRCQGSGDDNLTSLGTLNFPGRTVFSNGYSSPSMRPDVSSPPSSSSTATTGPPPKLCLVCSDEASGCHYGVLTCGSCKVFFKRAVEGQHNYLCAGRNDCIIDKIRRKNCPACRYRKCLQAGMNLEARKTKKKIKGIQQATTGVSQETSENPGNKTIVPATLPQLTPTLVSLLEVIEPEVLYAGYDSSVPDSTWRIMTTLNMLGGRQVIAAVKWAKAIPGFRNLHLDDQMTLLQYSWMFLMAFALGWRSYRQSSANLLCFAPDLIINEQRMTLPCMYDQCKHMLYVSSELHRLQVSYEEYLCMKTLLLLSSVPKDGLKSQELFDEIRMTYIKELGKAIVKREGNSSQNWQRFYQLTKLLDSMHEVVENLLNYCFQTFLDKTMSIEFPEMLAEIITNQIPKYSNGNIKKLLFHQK

[8] = target: T1, human GR; test: human GR functional assays; assay type: cell-based
[9] = exicorilant pharmacokinetics in Segment 2 patients; assay type: in vivo, human; details: for AUC(0-t) / Cmax: male, human, in vivo, oral, once daily with food; for AUC(0-t): read-out: AUC0-24, geometric mean; for Cmax: read-out: Cmax, geometric mean
Text: Exicorilant pharmacokinetics observed in the patients in Segment 2 are illustrated in FIG. 4A (data are shown as geometric mean plus geometric standard deviation), and tabulated in TABLE 6.

[10] = system: ER and AR; test: selectivity for GR relative to ER and AR
[11] = Segment 2 (n = 25), PCWG3 criteria
[12] = Arm A, EXI 240 mg + ENZA 160 mg (15 PK observations)
[13] = Arm A, EXI 280 mg + ENZA 160 mg (8 PK observations)
[14] = Arm A, EXI 320 mg + ENZA 160 mg (8 PK observations)
[15] = Arm B, EXI 240 mg + ENZA 160 mg (14 PK observations, combined)

## CNC(=O)c1ccc(N2C(=S)N(c3ccc(C#N)c(C(F)(F)F)c3)C(=O)C2(C)C)cc1F [enzalutamide]
[1]
  enzalutamide exposures in combination with exicorilant: consistent with historical data for enzalutamide 160 mg alone
[2]; enzalutamide alone, Segment 1 lead-in
  CDKN1C expression: not affected

## CNC(=O)c1ccc(N2C(=S)N(c3ccc(C#N)c(C(F)(F)F)c3)C(=O)C2(C)C)cc1F.Cn1ncc(S(=O)(=O)N2CC[C@H]3Cc4c(cnn4-c4ccc(F)cc4)C[C@]3(C(=O)c3cc(C(F)(F)F)ccn3)C2)n1 [exicorilant+enzalutamide]
[3]
  serum cortisol and ACTH levels: neither ACTH nor cortisol levels are significantly elevated
[4]; exicorilant with enzalutamide vs enzalutamide alone, castrated mice, N=10/group
  tumor growth: significantly reduced tumor growth
[5]; Segment 2
  SAEs with a fatal outcome: No SAEs with a fatal outcome
[5]; all patients
  grade 5 TEAEs: no grade 5 adverse events; also recorded: no grade 5 TEAEs
[5]; human, in vivo
  grade 4 TEAEs, number: one
[5]; once-daily, combined with 160 mg enzalutamide once daily, based on DLTs
  tolerated phase 2 regimen, exicorilant dose: 240 mg
[5]; segment 1, exicorilant BID fasted
  dose-limiting events: Dose-limiting fatigue, musculoskeletal pain, and pancreatitis
[6]; Segment 2
  PSA reductions at any time during treatment, % of patients: 56%
  PSA reductions at any time during treatment, number of patients: 14
  patients with greater than 25% increase in PSADT: Two
[6]; Segment 2 (n = 25)
  PSA response (≥50% PSA reduction from baseline), number of patients: 1
  reductions in PSA as compared to baseline, % of patients: 15% and 16%
  reductions in PSA as compared to baseline, number of patients: 4
[6]; Segment 2 (n = 25), PCWG3/mRECIST v1.1
  radiographic / imaging-based tumor responses: no radiographic responses; also recorded: no imaging-based tumor responses
[6]; [11]
  best overall response of stable disease, % of patients: 72%
  best overall response of stable disease, number of patients: 18
[6]; Segment 2, After C1D1 (n = 25)
  PSADT increased, % of patients: 52%
  PSADT increased, number of patients: 13
[6]; Segment 2, After C2D1 (n = 23)
  PSADT increased, % of patients: 69.6%
  PSADT increased, number of patients: 16
[6]; Segment 2, After C3D1 (n = 13)
  PSADT increased, % of patients: 61.4%
  PSADT increased, number of patients: 8
[6]; Segment 2 patients who received more than two cycles of the combined treatment
  PSADT increase, % of patients: 61.5%
[6]; of 14 patients with PSA reductions
  PSA declines by the second on-treatment PSA assessment, number of patients: 11
[6]; patient who received 320 mg exicorilant with 160 mg enzalutamide
  PSA reduction from baseline in one patient: 71.1%
[6]; patient with 240 mg exicorilant + 160 mg enzalutamide
  PSA reduction from baseline in one patient: 36.7%
[6]; patients dosed daily under fed conditions
  increases in PSA doubling time, % of patients: more than 50%

## Cn1ncc(S(=O)(=O)N2CC[C@H]3Cc4c(cnn4-c4ccc(F)cc4)C[C@]3(C(=O)c3cc(C(F)(F)F)ccn3)C2)n1 [exicorilant, ((4aR,8aS)-1-(4-fluorophenyl)-6-((2-methyl-2H-1,2,3-triazol-4-yl)sulfonyl)-4,4a,5,6,7,8,8a,9-octahydro-1H-pyrazolo[3,4-g]isoquinolin-4a-yl)(4-(trifluoromethyl)pyridin-2-yl)methanone]
[3]; Segment 2 subjects with escalated exicorilant doses
  24-h urinary free cortisol (UFC) levels: did not increase UFC levels
[3]
  serum cortisol and ACTH levels: did not affect cortisol or ACTH levels; also recorded: not significantly altered; also recorded: no significant alterations
[4]; exicorilant with castration vs castration alone, N=10 mice/group
  tumor growth: significantly reduced tumor growth
[7]
  Ki: < 1 nM
[8]
  Ki: < 15 nM
  mode of action at GR: competitive, reversible, full antagonist of GR
[5]; human, in vivo
  most frequently reported TEAE assessed as related to exicorilant: fatigue
[5]; male, human, in vivo
  Exicorilant-related TEAE ALP increased, % of patients: (12.0%)
  Exicorilant-related TEAE ALP increased, number of patients: 3
  Exicorilant-related TEAE Anemia, % of patients: (16.0%)
  Exicorilant-related TEAE Anemia, number of patients: 4
  Exicorilant-related TEAE Constipation, % of patients: (28.0%)
  Exicorilant-related TEAE Constipation, number of patients: 7
  Exicorilant-related TEAE Decreased appetite, % of patients: (24.0%)
  Exicorilant-related TEAE Decreased appetite, number of patients: 6
  Exicorilant-related TEAE Lymphocyte count decreased, % of patients: (12.0%)
  Exicorilant-related TEAE Lymphocyte count decreased, number of patients: 3
  Exicorilant-related TEAE Nausea, % of patients: (20.0%)
  Exicorilant-related TEAE Nausea, number of patients: 5
  Exicorilant-related TEAE Pain in extremity, % of patients: (20.0%)
  Exicorilant-related TEAE Pain in extremity, number of patients: 5
  Patients with any TEAE related to exicorilant, %: (92.0%)
  Patients with any TEAE related to exicorilant, number: 23
  SAEs assessed as being related to exicorilant, number: 1
  exicorilant-related AE back pain, % of patients: 35%
  exicorilant-related AE decreased appetite, % of patients: 27%
  exicorilant-related AE fatigue, % of patients: 57%
  exicorilant-related AE pain in extremity, % of patients: 22%
[2]; 240-320 mg QD with food vs BID fasting (Segment 1)
  pharmacodynamic effects (gene expression), with food vs fasting: larger when exicorilant was administered with food; also recorded: greater than those observed in fasted patients
[2]; patients receiving exicorilant
  modulation of GR target genes: confirmed modulation of GR target genes; also recorded: Modulation of GR target genes was observed
[9]; Segment 2, 240-320 mg
  exicorilant exposures across arms and dose levels: largely overlapping across arms and dose levels
[9]; [12]
  AUC(0-t): 366 µg·h/mL
  Cmax: 17700 ng/mL
[9]; [13]
  AUC(0-t): 401 µg·h/mL
  Cmax: 19600 ng/mL
[9]; [14]
  AUC(0-t): 428 µg·h/mL
  Cmax: 19600 ng/mL
[9]; [15]
  AUC(0-t): 375 µg·h/mL
  Cmax: 17200 ng/mL
[10]
  selectivity for GR: selectivity for GR relative to ER and AR
